Data taken from patent publication US9751919B2, “Antimicrobial compositions comprising a hyaluronic acid binding peptide and a β-lactam antibiotic” (priority 2012, dated 2017).
“And” between values parts separate entries of the source, which are not always exact repeats. Equal entries are not always repeated. “Also recorded” adds a separate entry of the source.

Experiments:
[1] = tested on: MRSA, VISA, VRSA and E. coli; assay: Checkerboard assay, panel statement; type: cell-based; details: with β-lactams versus MRSA, VISA, VRSA and E. coli
Experimental: Checkerboard assays were carried out as described by Bonapace et al.
Diagnostic Microbiology and Infectious Diseases 2002; 44:363-366. In brief, checkerboard assays were performed in 96 well microtitre trays using an 8-by-8 well configuration. […] 96-well custom designed microtitre plates contained 100 ul/well of cation adjusted Mueller-Hinton broth (eg. for Enterobacteriaceae) with or without lysed horse blood (2-5% V/V) [eg. for S. pneumoniae] and were inoculated to achieve a final concentration of approximately 5×10^5 CFU/ml and incubated in ambient air for 24 hours prior to reading. Colony counts were performed periodically to confirm inocula. Quality control was performed every two weeks using a variety of ATCC QC organisms including; S. pneumoniae 49619, S. aureus 29213, E. faecalis 29212, E. coli 25922 and P. aeruginosa 27853. […] All peptides were assessed for synergy with β-lactams and vancomycin. For all antimicrobials as well as the peptides, CLSI criteria were used.
The fractional inhibitory concentration index (FIC index) was used to interpret synergy, antagonism or additivity/indifference. FIC index=FIC of drug A+FIC of drug B where:
The FIC of drug A and drug B was calculated as follows, FIC drug A=MIC of drug A in combination/MIC of drug A alone and FIC of drug B=MIC of drug B in combination/MIC of drug B alone. Synergy was defined as FIC index ≦0.5, additivity/indifference defined as a FIC between 0.5 and 4 and antagonism defined as an FIC index >4.
The fractional inhibitory concentration index (FIC index) was used to interpret synergy, antagonism or additivity/indifference. FIC index=FIC of drug A+FIC of drug B where the FIC of drug A and drug B was calculated as follows, FIC drug A=MIC of drug A in combination/MIC of drug A alone and FIC of drug B=MIC of drug B in combination/MIC of drug B alone. Synergy was defined as FIC index ≦0.5, additivity/indifference defined as an FIC of between 0.5 and 4 and antagonism defined as an FIC index >4.

VISA = assay: MIC (CLSI broth dilution), agent alone; type: cell-based, Staphylococcus aureus; set-up: unit: µg/mL
Experimental: (§1) VISA (strains 92, 95 and 96), VRSA (strains 105 and 106) and E. coli (strain 69717) isolates were also tested. One MSSA was used as a control. All MICs were assessed using CLSI guidelines. Also assessed was the activity of cefazolin, ceftriazone, meropenem, and a piperacillin/tazobactam combination antibiotic. Minimum inhibitory concentration (MIC) is the lowest concentration of an antimicrobial that will inhibit the visible growth of a microorganism after incubation.
(§2) Antimicrobial Susceptibility Testing: A custom designed panel of antimicrobials was created. The panel included: PEP35, penicillin, piperacillin/tazobactam, cefazolin, ceftriaxone, meropenem, clarithromycin, clindamycin, gentamicin, amikacin, vancomycin, ciprofloxacin, levofloxacin, moxifloxacin, linezolid, trimethoprim/sulfamethoxazole and doxycycline. These agents were obtained as laboratory grade powders from their respective manufacturers. Stock solutions were prepared and dilutions made as described by the Clinical Laboratory Standards Institute (2005 CLSI). Following two subcultures from frozen stock the MICs of the antimicrobial agents for the isolates were determined by the CLSI 2005 approved broth macrodilution method. Briefly, test tubes containing doubling antibiotic dilutions (2 ml per tube) of cation adjusted Mueller-Hinton broth (eg. for Enterobacteriaceae) with or without lysed horse blood (2-5% V/V) [eg. for S. pneumoniae] were inoculated to achieve a final concentration of approximately 5×10^5 CFU/ml and incubated in ambient air for 24 hours prior to reading. Colony counts were performed periodically to confirm inocula. Quality control was performed every two weeks using a variety of ATCC QC organisms including; S. aureus 29213, E. faecalis 29212, E. coli 25922 and P. aeruginosa 27853. For all antimicrobials as well as PEP35, CLSI criteria were used.
(§3) One MSSA was used as a control. All MICs were assessed using CLSI guidelines.

E. coli = assay: MIC (CLSI broth dilution), agent alone; type: cell-based, Escherichia coli; details: agent alone
Experimental: as §1, §2
(§4) One MS SA and ATCC reference strains were used as controls. All MICs were assessed using CLSI guidelines.

HA-MRSA [2] = assay: MIC (CLSI broth dilution), agent alone; type: cell-based, Staphylococcus aureus; details: agent alone
Experimental: as §1
as §2, with “The panel included: PEP35, penicillin, piperacillin/tazobactam, cefazolin, ceftriaxone, meropenem, clarithromycin, clindamycin, gentamicin, amikacin, vancomycin, ciprofloxacin, levofloxacin, moxifloxacin, linezolid, trimethoprim/sulfamethoxazole and doxycycline.” left out, “27853.” for “27853. For all antimicrobials as well as PEP35, CLSI criteria were used.”
as §3, §4

MSSA = assay: MIC (CLSI broth dilution), agent alone; type: cell-based, Staphylococcus aureus; details: MSSA 79333, agent alone
Experimental: as §1
as §2, with “The panel included: PEP35, penicillin, piperacillin/tazobactam, cefazolin, ceftriaxone, meropenem, clarithromycin, clindamycin, gentamicin, amikacin, vancomycin, ciprofloxacin, levofloxacin, moxifloxacin, linezolid, trimethoprim/sulfamethoxazole and doxycycline.” left out, “27853.” for “27853. For all antimicrobials as well as PEP35, CLSI criteria were used.”
as §3, §4

CA-MRSA [3] = assay: MIC (CLSI broth dilution), agent alone; type: cell-based, Staphylococcus aureus; details: agent alone
Experimental: as §1
as §2, with “The panel included: PEP35, penicillin, piperacillin/tazobactam, cefazolin, ceftriaxone, meropenem, clarithromycin, clindamycin, gentamicin, amikacin, vancomycin, ciprofloxacin, levofloxacin, moxifloxacin, linezolid, trimethoprim/sulfamethoxazole and doxycycline.” left out, “27853.” for “27853. For all antimicrobials as well as PEP35, CLSI criteria were used.”
as §3, §4

HA-MRSA [4] = assay: Antibiotic MIC with fixed concentration of peptide; type: cell-based, Staphylococcus aureus; details: HA-MRSA strains; Table 13
Experimental: as §3, §4

CA-MRSA [5] = assay: Antibiotic MIC with fixed concentration of peptide; type: cell-based, Staphylococcus aureus; details: versus CA-MRSA; Table 13
Experimental: as §3, §4

VRSA [6] = assay: Antibiotic MIC with fixed concentration of peptide; type: cell-based, Staphylococcus aureus; details: VISA and VRSA; Table 13
Experimental: as §3

VRSA [7] = assay: MIC (CLSI broth dilution), agent alone; type: cell-based, Staphylococcus aureus; set-up: unit not given beside the values
Experimental: as §1, §2, §3

[8] = tested on: MRSA, VISA, VRSA and E. coli; assay: MIC, agent alone, panel statement; type: cell-based; details: versus MRSA, VISA, VRSA and E. coli
Experimental: as §1, §2

LKQKIKHVVKLKVVVKLRSQLAKKKQS (hybPEP35-1 conservative substitution human peptide variant) [human peptide variant of PEP35 with conservative substitutions]
synergistic activity (in words) [1]: synergistic activity
MIC (VISA; VISA 92): >2048/>2048
MIC (VISA; VISA 95): >2048/2048
MIC (VISA; VISA 96, in µg/mL): 1024
MIC (VISA; VISA 96, listed as hybPEP35, in µg/mL): 1024 and 2048
MIC (E. coli; E. coli 69716, listed as hybPEP35-1, in µg/mL): 64
MIC (E. coli; E. coli 69716, listed as hybPEP35, in µg/mL): 128 and 64
MIC (E. coli; E. coli 70752): 64/64
MIC (E. coli; E. coli 70752, in µg/mL): 32
MIC (HA-MRSA [2]; HA-MRSA 70798 (USA100/800), in µg/mL): > 2048 and 1024
MIC (HA-MRSA [2]; HA-MRSA 77090 (USA100/800), in µg/mL): 1024 and 512
MIC (HA-MRSA [2]; HA-MRSA 77098 (USA100/800)): ≧2048/2048^
MIC (MSSA): 128/128
MIC (MSSA; in µg/mL): 256
MIC (CA-MRSA [3]; CA-MRSA 69615 (USA400)): 1024/1024
MIC (CA-MRSA [3]; CA-MRSA 70857 (USA400)): 1024/1024
synergy with β-lactams (in words) (HA-MRSA [4]): weak synergy; also recorded: stronger synergy
synergy with β-lactams (in words) (CA-MRSA [5]): Strong synergy
synergy with β-lactams (in words) (VRSA [6]): mild to strong
MIC (VRSA [7]; VRSA 105): 128/128
MIC (VRSA [7]; VRSA 105, in µg/mL): 256 and 128
MIC (VRSA [7]; VRSA 106, in µg/mL): 256
MIC (VRSA [7]; VRSA 106, listed as hybPEP35, in µg/mL): 128 and 256
activity (in words) [8]: no activity; also recorded: not active
